# Earlier results as cited in article PMC6317935 (ChemistryOpen, 2018).
# Test system: FXR
# Conditions: read-out: EC50 (FXR agonist)
row,EC50,SMILES
1,4 nM,"CC(C)OC(=O)C1=CN(C(=O)c2ccc(F)c(F)c2)CC(C)(C)c2c1[nH]c1ccccc21 [Compound 4, WAY‐362450]"
2,25 nM,"COC(=O)/C=C/c1cccc(N(Cc2ccc(-c3ccc(N(C)C)cc3)cc2)C(=O)C2CCCCC2)c1 [Compound 3, Fexaramine]"
